# Assay results as given in patent publication US10363299B2, “Compositions and methods for preventing and treating rhinovirus infections” (priority 2015, dated 2019).
# Several values for one entry are separate records, joined by “and”; a condition that tells them apart may be missing. Equal entries are not always repeated.
# What was measured:
# CD4+ T cells = assay: Tetramer-guided epitope mapping (TGEM): pMHCII tetramer staining of PBMC cultures stimulated with RV peptides; format: cell-based, human; settings: one value per subject
# Excerpt: (§1) Peptide libraries consisting of 20mers with a 12 amino acid overlap were generated to span the VP1, VP2 and VP4 protein sequences of RV-A16, and VP1 and VP2 protein sequences of RV-A39 (UniprotKB accession # Q82122, Q5XLP5). […] Biologically relevant pMHCII complexes were identified by tetramer-guided epitope mapping (TGEM). This involved 2 steps: First, PBMC cultures established from subjects with known HLA-DR types were stimulated with RV peptide pools derived from VP1, VP2, or VP4, and then stained with pMHCII tetramer pools composed of HLA-DR molecules corresponding to those expressed in the test subject; Second, positive signals were de-convoluted by repeating and staining with single-peptide tetramers. Tetramers that gave strong positive signals (˜1% of total CD4+ T cells) in the single peptide-tetramer screen in more than one subject, were then re-tested for their ability to detect RV-specific CD4+ T cells in non-stimulated PBMCs (denoted as ex vivo analysis) in multiple subjects.
# (§2) All experiments were performed in subjects expressing HLA-DR molecules corresponding to the selected tetramer. Precursor frequencies of circulating tetramer+ cells were then calculated by established methods. Tetramer+ cells were phenotyped for surface markers by staining PBMCs with PE-conjugated tetramers, labeling with anti-PE magnetic beads, enriching with an AutoMACS separator (Miltenyi Biotec, Auburn, Calif., USA), and then counterstaining for surface markers. A tetramer displaying an irrelevant peptide, GAD555-567, was used as a staining control. For simplicity, identified RV-A16 peptide epitopes were given a numerical designation.
# RV-specific CD4+ T cells = assay: Direct ex vivo pMHCII tetramer staining of non-stimulated PBMCs; format: cell-based, human; design: key to Validated: Y means validated; settings: for Ex Vivo Frequency (# per 10^6 CD4): directly ex vivo, without culture, one value per subject; for Validated: reliable ex vivo signal
# Excerpt: as §1, §2
# [1] = HLA allele 1*0404 tetramer, peptide-stimulated PBMC cultures
# [2] = HLA allele 1*1501 tetramer, peptide-stimulated PBMC cultures
# [3] = HLA allele 1*0701 tetramer, peptide-stimulated PBMC cultures
# [4] = HLA allele 1*1101 tetramer, peptide-stimulated PBMC cultures
# [5] = HLA allele 1*0101 tetramer, tetramer-positive CD4+ T cells in peptide-stimulated PBMC cultures
# [6] = HLA allele 1*0401 tetramer, peptide-stimulated PBMC cultures
# [7] = HLA allele 1*0301 tetramer, peptide-stimulated PBMC cultures
sequence,measurement,setting,value
AAKDGHIGHIVMQYMYVPPG [VP1P17],In Vitro Frequency (% CD4),CD4+ T cells; [1],2.00 % CD4 and 2.99 % CD4 and 2.60 % CD4
same,Ex Vivo Frequency (# per 10^6 CD4),RV-specific CD4+ T cells; HLA allele 1*0404 tetramer,112 # per 10^6 CD4
ASKFHQGTLLVVMIPEHQLA [VP2P15],In Vitro Frequency (% CD4),CD4+ T cells; [1],0.98 % CD4 and 0.81 % CD4
same,In Vitro Frequency (% CD4),CD4+ T cells; [2],0.55 % CD4 and 0.53 % CD4
EITMVPSVAAKDGHIGHIVM [VP1P16],In Vitro Frequency (% CD4),CD4+ T cells; [3],0.60 % CD4 and 0 % CD4
EQLHKVKVVTRIYHKAKHTK [VP1P29],In Vitro Frequency (% CD4),CD4+ T cells; [4],3.35 % CD4 and 2.79 % CD4
same,Ex Vivo Frequency (# per 10^6 CD4),RV-specific CD4+ T cells; HLA allele 1*1101 tetramer,0 # per 10^6 CD4 (2×) and 3 # per 10^6 CD4
FTYARFDSEITMVPSVAAKD [VP1P15],In Vitro Frequency (% CD4),CD4+ T cells; [3],0.26 % CD4 and 0 % CD4
FWQHGQPFPRFSLPFLSIAS [VP1P22],In Vitro Frequency (% CD4),"CD4+ T cells; HLA allele DRB5 tetramer, peptide-stimulated PBMC cultures",3.52 % CD4 and 0.74 % CD4
same,Ex Vivo Frequency (# per 10^6 CD4),RV-specific CD4+ T cells; HLA allele DRB5 tetramer,10 # per 10^6 CD4 and 4 # per 10^6 CD4
GIFGENMFYHFLGRSGYTVH [VP2P12],In Vitro Frequency (% CD4),CD4+ T cells; [5],0.63 % CD4 and 0 % CD4 and 1.23 % CD4
same,In Vitro Frequency (% CD4),CD4+ T cells; [4],1.55 % CD4 and 0 % CD4 and 0.38 % CD4
HIVMQYMYVPPGAPIPTTRN [VP1P18],In Vitro Frequency (% CD4),CD4+ T cells; [5],3.51 % CD4 and 0 % CD4 (2×)
same,In Vitro Frequency (% CD4),CD4+ T cells; [6],0 % CD4 and 0.65 % CD4
same,In Vitro Frequency (% CD4),CD4+ T cells; [1],1.84 % CD4 and 4.22 % CD4 and 2.76 % CD4
same,Ex Vivo Frequency (# per 10^6 CD4),RV-specific CD4+ T cells; HLA allele 1*0401 tetramer,2 # per 10^6 CD4
same,Ex Vivo Frequency (# per 10^6 CD4),RV-specific CD4+ T cells; HLA allele 1*0404 tetramer,247 # per 10^6 CD4 and 10 # per 10^6 CD4 and 52 # per 10^6 CD4 and 5 # per 10^6 CD4
same,Validated,RV-specific CD4+ T cells; HLA allele 1*0404 tetramer,Y
ISNIVPITVSISPMCAEFSG [VP2P30],In Vitro Frequency (% CD4),CD4+ T cells; [2],0.46 % CD4 and 0 % CD4
ITVSISPMCAEFSGARAKTV [VP2P31],In Vitro Frequency (% CD4),CD4+ T cells; [2],0.37 % CD4 and 0 % CD4
LDSKMWNSTSKGWWWKLPDA [VP2P9],In Vitro Frequency (% CD4),CD4+ T cells; [4],0.22 % CD4 and 0 % CD4 (2×)
LLGNLLIFPHQFINLRSNNS [VP2P23],In Vitro Frequency (% CD4),CD4+ T cells; [5],1.6 % CD4 and 3.19 % CD4 and 1.58 % CD4
LLVVMIPEHQLATVNKGNVN [VP2P16],In Vitro Frequency (% CD4),CD4+ T cells; [2],0 % CD4 and 3 % CD4
NEKQPSDDNWLNFDGTLLGN [VP2P21],In Vitro Frequency (% CD4),CD4+ T cells; [7],1.57 % CD4 and 0.87 % CD4
same,In Vitro Frequency (% CD4),CD4+ T cells; [6],5.13 % CD4 and 0.89 % CD4
same,In Vitro Frequency (% CD4),CD4+ T cells; [1],0 % CD4 and 0.65 % CD4
same,Ex Vivo Frequency (# per 10^6 CD4),RV-specific CD4+ T cells; HLA allele 1*0301 tetramer,29 # per 10^6 CD4 and 4 # per 10^6 CD4 and 6 # per 10^6 CD4
same,Validated,RV-specific CD4+ T cells; HLA allele 1*0301 tetramer,Y
same,Ex Vivo Frequency (# per 10^6 CD4),RV-specific CD4+ T cells; HLA allele 1*0401 tetramer,9 # per 10^6 CD4 and 63 # per 10^6 CD4 and 3 # per 10^6 CD4
same,Validated,RV-specific CD4+ T cells; HLA allele 1*0401 tetramer,Y
NWLNFDGTLLGNLLIFPHQF [VP2P22],In Vitro Frequency (% CD4),CD4+ T cells; [5],0.35 % CD4 and 0 % CD4 (2×)
same,In Vitro Frequency (% CD4),CD4+ T cells; [7],2.61 % CD4 and 0.75 % CD4
same,In Vitro Frequency (% CD4),CD4+ T cells; [6],3.38 % CD4 and 0.89 % CD4
same,In Vitro Frequency (% CD4),CD4+ T cells; [4],0 % CD4 (2×) and 1.31 % CD4
same,Ex Vivo Frequency (# per 10^6 CD4),RV-specific CD4+ T cells; HLA allele 1*0401 tetramer,1 # per 10^6 CD4
